Reference: patent publication US11465984B2, “Compound having ERK kinase inhibitory activity and use thereof” (SHANGHAI HAIHE PHARMACEUTICAL CO., LTD., priority 2017, dated 2022)

Molecular target: ERK2 kinase (Homo sapiens (Human), UniProt P28482)
Assay: In vitro enzyme activity assay, ERK2 kinase (Z'-LYTE)
Assay type: biochemical
Conditions: class symbols; read-out: ERK2 IC50
Procedure: Half inhibitory activity of the compounds of the invention against ERK2 kinase (IC50 value) was determined in this Example.
• Enzyme: extracellular signal-regulated kinase ERK2 kinase (PV3595, Invitrogen) • Kit: Z′-LYTE® Protein Kinase Assay Kit-Ser/Thr 3 Peptide (PV3176, Invitrogen) • Kit components: The substrate Z′-LYTE™ Ser/Thr 3 Peptide (PV3200) • The phosphorylation substrate Z′-LYTE™ Ser/Thr 3 Phospho-peptide (PV3215) • 5× kinase buffer: 250 mM HEPES (pH 7.5), 50 mM MgCl2, • 5 mM EGTA, 0.05% BRIJ-35 (PV3189, Invitrogen) • ATP (PV3227, Invitrogen) • Development Reagent A (PV3295, Invitrogen) • Development Buffer (P3127, Invitrogen) • Stop Reagent (P3094, Invitrogen) • Microplate reader: The multil-mode microplate reader PerkinElmer EnVision® • Microplate: black shallow 384-well microplate (6008269, PerkinElmer) (2). Assay Protocol:
The substrate Z′-LYTE™ Ser/Thr 3 Peptide, the phosphorylation substrate Z′-LYTE™ Ser/Thr 3 Phospho-peptide, 1× kinase buffer (5× kinase buffer was diluted with ultra pure water by five times), ATP, Development Reagent A, Development Buffer, Stop Reagent were balanced to room temperature for use. The screening concentrations for detecting the effect of the compounds of the invention on the ERK kinase activity were seven 3-fold serial dilutions starting from 1 μM (from 0.2 μM for the positive drug control) using 4% DMSO as co-solvent. 5 μL enzyme system (50 mM HEPES pH 7.5, 1 mM EGTA, 10 mM MgCl2, 0.01% Brij-35, 4 uM substrate, 0.8 ng/μL enzyme), 2.5 μL Compound, 2.5 μL 400 μM ATP were added into 384 well microplate, followed by incubation at room temperature for 60 min in the dark. After the reaction was completed, 5 μl the developing agent (Development Reagent A) diluted with the developing buffer (Development Buffer) was added to all reaction wells, followed by incubation at the room temperature for 60 min in the dark. 5 μL the terminating agent was added to each well to terminate the reaction. The fluorescence was determined using the multil-mode microplate reader PerkinElmer EnVision® (excitation wavelength 400 nm, emission wavelength 460 nm and 528 nm).
The inhibition rate of each well was calculated from 100% phosphorylation substrate well and 0% phosphorylation substrate well using the data analysis method below: phosphorylation %=1−{(emission rate×F100%−C100%)/[C0%−C100%+emission rate×(F100%−F0%)]}×100 inhibition %=100×(1−phosphorylation % of the test compound well/phosphorylation % of the 0% inhibition control) • wherein: • emission rate=fluorescence emission of the sample at 445 nm/fluorescence emission of the sample at 520 nm • F100%=the average fluorescence emission of the control well of 100% phosphorylation substrate at 520 nm • F0%=the average fluorescence emission of the control well of 0% phosphorylation substrate at 520 nm • C100%=the average fluorescence emission of the control well of 100% phosphorylation substrate at 445 nm • C0%=the average fluorescence emission of the control well of 0% phosphorylation substrate at 445 nm
Tests were carried out in duplicate. IC50 values were calculated from the inhibition of the kinase by the test compounds at a range of different concentrations.

Chain of ERK2 kinase (P28482 whole entry): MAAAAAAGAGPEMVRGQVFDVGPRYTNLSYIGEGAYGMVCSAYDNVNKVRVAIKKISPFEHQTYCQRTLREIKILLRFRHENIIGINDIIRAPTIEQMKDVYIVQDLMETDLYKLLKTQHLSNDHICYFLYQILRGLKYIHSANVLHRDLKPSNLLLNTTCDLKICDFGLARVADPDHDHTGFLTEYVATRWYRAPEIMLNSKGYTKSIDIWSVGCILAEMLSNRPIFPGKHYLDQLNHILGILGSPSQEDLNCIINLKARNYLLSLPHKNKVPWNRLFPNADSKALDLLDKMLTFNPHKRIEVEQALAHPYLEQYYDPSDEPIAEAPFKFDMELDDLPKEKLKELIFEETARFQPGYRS

First: CC(CO)Nc1nccc(-c2cc(F)c3c(c2)CCN3C(=O)Cc2cccnc2Cl)n1 (stereo not shown) [Example P1, 2-(2-chloropyridin-3-yl)-1-(7-fluoro-5-(2-((1-hydroxylprop-2-yl)amino)pyrimidin-4-yl)indolin-1-yl)ethan-1-one]
Second: O=C(Cc1cccnc1Cl)N1CCc2cc(-c3ccnc(NCCO)n3)cc(F)c21 [Example P2, 2-(2-chloropyridin-3-yl)-1-(7-fluoro-5-(2-((2-hydroxylethyl)amino)pyrimidin-4-yl)indolin-1-yl)ethan-1-one]
The IC50 of the first is higher: 100 to 1000 nM for the first, 10 to 100 nM for the second.

`CC(CO)Nc1cc(-c2cc(F)c3c(c2)CCN3C(=O)Cc2cccnc2Cl)ccn1` (stereo not shown) [Example P8, 2-(2-chloropyridin-3-yl)-1-(7-fluoro-5-(2-((1-hydroxylprop-2-yl)amino)pyridin-4-yl)indolin-1-yl)ethan-1-one] and `O=C(Cc1cccnc1Cl)N1CCc2cc(-c3ccnc(NC4CC(O)C4)c3)cc(F)c21` (racemic) [Example P53, 2-(2-chloropyridin-3-yl)-1-(7-fluoro-5-(2-((3-hydroxylcyclobutyl)amino)pyridin-4-yl)indolin-1-yl)ethan-1-one] fall in the same range of IC50: 100 to 1000 nM for the first, 100 to 1000 nM for the second.

First: Cn1nccc1Nc1cc(-c2cc(F)c3c(c2)CCN3C(=O)Cc2cccnc2C2CCOCC2)ccn1 [Example P57, 1-(7-fluoro-5-(2-((1-methyl-1H-pyrazol-5-yl)amino)pyridin-4-yl)indolin-1-yl)-2-(2-(tetrahydro-2H-pyran-4-yl)pyridin-3-yl)ethan-1-one]
Second: Cc1ncccc1CC(=O)N1CCc2cc(-c3ccnc(Nc4ccnn4C)c3)cc(F)c21 [Example P45, 1-(7-fluoro-5-(2-((1-methyl-1H-pyrazol-5-yl)amino)pyridin-4-yl)indolin-1-yl)-2-(2-methylpyridin-3-yl)ethan-1-one]
The IC50 of the first is higher: 100 to 1000 nM for the first, at most 10 nM for the second. The second is the more potent here.

`CC1Cc2cc(-c3ccnc(Nc4ccnn4C)n3)cc(F)c2N1C(=O)Cc1cccnc1Cl` (stereo not shown) [Example P32, 2-(2-chloropyridin-3-yl)-1-(7-fluoro-2-methyl-5-(2-((1-methyl-1H-pyrazol-5-yl)amino)pyrimidin-4-yl)indolin-1-yl)ethan-1-one] and `COCC1Cc2cc(-c3nc(Nc4ccnn4C)ncc3C)cc(F)c2N1C(=O)Cc1cccnc1Cl` (stereo not shown) [Example P49, 2-(2-chloropyridin-3-yl)-1-(7-fluoro-2-(methoxymethyl)-5-(5-methyl-2-((1-methyl-1H-pyrazol-5-yl)amino)pyrimidin-4-yl)indolin-1-yl)ethan-1-one] cannot be ordered by IC50: at most 10 nM for the first, at most 10 nM for the second.

`Cn1nccc1Nc1cc(-c2cc(F)c3c(c2)CCN3C(=O)CCc2cccnc2Cl)ccn1` [Example P55, 3-(2-chloropyridin-3-yl)-1-(7-fluoro-5-(2-((1-methyl-1H-pyrazol-5-yl)amino)pyridin-4-yl)indolin-1-yl)propan-1-one] and `Cn1nccc1Nc1cc(-c2cc(F)c3c(c2)CCN3C(=O)Cc2ncccc2Cl)ccn1` [Example P28, 2-(3-chloropyridin-2-yl)-1-(7-fluoro-5-(2-((1-methyl-1H-pyrazol-5-yl)amino)pyridin-4-yl)indolin-1-yl)ethan-1-one] fall in the same range of IC50: 10 to 100 nM for the first, 10 to 100 nM for the second.

First: Cn1nccc1Nc1nccc(-c2cc(F)c3c(c2)CCN3C(=O)Cc2c(F)ccnc2Cl)n1 [Example P33, 2-(2-chloro-4-fluoropyridin-3-yl)-1-(7-fluoro-5-(2-((1-methyl-1H-pyrazol-5-yl)amino)pyrimidin-4-yl)indolin-1-yl)ethan-1-one]
Second: Cn1nccc1Nc1nccc(-c2cc(F)c3c(c2)CCN3C(=O)Cc2cc(F)ccc2F)n1 [Example P39, 2-(2,5-difluorophenyl)-1-(7-fluoro-5-(2-((1-methyl-1H-pyrazol-5-yl)amino)pyrimidin-4-yl)indolin-1-yl)ethan-1-one]
The IC50 of the first is lower: 10 to 100 nM for the first, 100 to 1000 nM for the second. The first is the more potent here.

`O=C(Cc1cccnc1Cl)N1CCc2cc(-c3ccnc(NC4CCOCC4)n3)cc(F)c21` [Example P5, 2-(2-chloropyridin-3-yl)-1-(7-fluoro-5-(2-((tetrahydro-2H-pyran-4-yl)amino)pyrimidin-4-yl)indolin-1-yl)ethan-1-one] and `O=C(Cc1cccnc1Cl)N1CCc2cc(-c3ccnc(NC4CCC(O)CC4)n3)cc(F)c21` (stereo not shown) [Example P3, 2-(2-chloropyridin-3-yl)-1-(7-fluoro-5-(2-((4-hydroxylcyclohexyl)amino)pyrimidin-4-yl)indolin-1-yl)ethan-1-one] cannot be ordered by IC50: at most 10 nM for the first, 10 to 100 nM for the second.

`Cn1nccc1Nc1nccc(-c2cc(F)c3c(c2)CCN3C(=O)Cc2ccccc2F)n1` [Example P17, 1-(7-fluoro-5-(2-((1-methyl-1H-pyrazol-5-yl)amino)pyrimidin-4-yl)indolin-1-yl)-2-(2-fluorophenyl)ethan-1-one] and `Cn1nccc1Nc1nccc(-c2cc(F)c3c(c2)CCN3C(=O)Cc2ccccc2Cl)n1` [Example P18, 2-(2-chlorophenyl)-1-(7-fluoro-5-(2-((1-methyl-1H-pyrazol-5-yl)amino)pyrimidin-4-yl)indolin-1-yl)ethan-1-one] cannot be ordered by IC50: 10 to 100 nM for the first, at most 10 nM for the second.

Compared with `O=C(Cc1cccnc1Cl)N1CCc2cc(-c3ccnc(NC4CCC(O)C4)n3)cc(F)c21` (stereo not shown) [Example P4, 2-(2-chloropyridin-3-yl)-1-(7-fluoro-5-(2-((3-hydroxylcyclopentyl)amino)pyrimidin-4-yl)indolin-1-yl)ethan-1-one], `Cn1nccc1Nc1nccc(-c2cc(F)c3c(c2)CCN3C(=O)Cc2ccc(Cl)cc2)n1` [Example P19, 2-(4-chlorophenyl)-1-(7-fluoro-5-(2-((1-methyl-1H-pyrazol-5-yl)amino)pyrimidin-4-yl)indolin-1-yl)ethan-1-one] is higher in IC50: 10 to 100 nM for the first, 100 to 1000 nM for the second. The first is the more potent here.

Same assay, conditions: read-out: IC50 against ERK2 kinase

Going from `CC1CN(C(=O)Cc2cccnc2Cl)c2c(F)cc(-c3ccnc(Nc4ccnn4C)c3)cc21` (stereo not shown) [Example P59, 2-(2-chloropyridin-3-yl)-1-(7-fluoro-3-methyl-5-(2-((1-methyl-1H-pyrazol-5-yl)amino)pyridin-4-yl)indolin-1-yl)ethan-1-one] to `Cn1nccc1Nc1nccc(-c2cc(F)c3c(c2)CCN3C(=O)Cc2ccccc2Cl)n1` [Example P18, 2-(2-chlorophenyl)-1-(7-fluoro-5-(2-((1-methyl-1H-pyrazol-5-yl)amino)pyrimidin-4-yl)indolin-1-yl)ethan-1-one], the IC50 falls from 4.8 nM to 3 nM (1.6-fold). The second is the more potent here.

Tested on: patients having melanoma with NRAS mutation and solid tumors with BRAF V600 and non-V600 mutants
Assay: not given
Conditions: 600 mg twice a day; cited from earlier work

In the case of `CC(C)Nc1cc(-c2c[nH]c(C(=O)N[C@H](CO)c3cccc(Cl)c3)c2)c(Cl)cn1` [BVD-523, Ulixertinib], the efficacy in patients is given as “lasting efficacy”.

For `CC(C)Nc1cc(-c2c[nH]c(C(=O)N[C@H](CO)c3cccc(Cl)c3)c2)c(Cl)cn1` [BVD-523, Ulixertinib], the safety in patients is listed as “acceptable safety”.
